Experimental data as given in paper PMC8580884, “A Novel System for Evaluating the Inhibition Effect of Drugs on Cytochrome P450 Enzymes in vitro Based on Human-Induced Hepatocytes (hiHeps)” (Frontiers in Pharmacology, 2021).

Legend:
CYP3A4 [1] = target: T1, CYP3A4 (Homo sapiens, UniProt P08684); assay: intact hiHeps cells, metabolite by UPLC-MS/MS, Lineweaver-Burk; assay type: cell-based
T1 construct: native enzyme in human liver microsomes (IC50) or human-induced hepatocytes hiHeps (Km); read by midazolam to 1'-hydroxymidazolam (CYP3A5 may contribute)

CYP2C9 = target: T2, CYP2C9 (Homo sapiens, UniProt P11712); assay: as above; assay type: cell-based; details: hepatocytes
T2 construct: native enzyme in human liver microsomes (IC50) or human-induced hepatocytes hiHeps (Km); read by diclofenac to 4'-hydroxydiclofenac

CYP2B6 [2] = target: T3, CYP2B6 (Homo sapiens, UniProt P20813); assay: as above; assay type: cell-based; details: hepatocytes
T3 construct: native enzyme in human liver microsomes (IC50) or human-induced hepatocytes hiHeps (Km); read by bupropion to hydroxybupropion
T3 sequence (P20813 1-491): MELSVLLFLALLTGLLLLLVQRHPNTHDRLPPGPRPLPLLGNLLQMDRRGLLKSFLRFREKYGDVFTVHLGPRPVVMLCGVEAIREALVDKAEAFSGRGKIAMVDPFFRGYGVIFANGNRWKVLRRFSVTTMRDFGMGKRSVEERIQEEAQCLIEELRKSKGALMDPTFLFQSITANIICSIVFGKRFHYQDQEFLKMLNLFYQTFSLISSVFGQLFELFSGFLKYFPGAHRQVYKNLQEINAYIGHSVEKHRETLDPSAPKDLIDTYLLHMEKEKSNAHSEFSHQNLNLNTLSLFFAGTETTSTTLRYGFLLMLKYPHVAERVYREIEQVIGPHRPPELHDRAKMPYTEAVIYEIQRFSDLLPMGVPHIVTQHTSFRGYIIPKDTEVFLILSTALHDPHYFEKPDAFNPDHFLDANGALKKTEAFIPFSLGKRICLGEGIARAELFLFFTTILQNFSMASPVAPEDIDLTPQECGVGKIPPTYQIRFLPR

CYP2C19 = target: T4, CYP2C19 (Homo sapiens, UniProt P33261); assay: human liver microsomes, cocktail probe assay, UPLC-MS/MS; assay type: biochemical; details: read-out: IC50 (μM) / HLM
T4 construct: native enzyme in human liver microsomes (IC50) or human-induced hepatocytes hiHeps (Km)
Excerpt: human liver microsomes, cocktail probe assay, UPLC-MS/MS on CYP2C19

CYP3A4 [3] = target: T1, CYP3A4; assay: as above; assay type: biochemical; details: 10 μM midazolam in five-probe cocktail, NADPH, MgCl2, alamethicin, 37°C, 60 min; read-out: IC50 (μM) / HLM
Excerpt: human liver microsomes, cocktail probe assay, UPLC-MS/MS on CYP3A4

CYP1A2 = target: T5, CYP1A2 (Homo sapiens, UniProt P05177); assay: as above; assay type: biochemical; details: read-out: IC50 (μM) / HLM
T5 construct: native enzyme in pooled human liver microsomes (IC50) or human-induced hepatocytes hiHeps (Km); read by phenacetin to acetaminophen
T5 sequence (P05177 2-516): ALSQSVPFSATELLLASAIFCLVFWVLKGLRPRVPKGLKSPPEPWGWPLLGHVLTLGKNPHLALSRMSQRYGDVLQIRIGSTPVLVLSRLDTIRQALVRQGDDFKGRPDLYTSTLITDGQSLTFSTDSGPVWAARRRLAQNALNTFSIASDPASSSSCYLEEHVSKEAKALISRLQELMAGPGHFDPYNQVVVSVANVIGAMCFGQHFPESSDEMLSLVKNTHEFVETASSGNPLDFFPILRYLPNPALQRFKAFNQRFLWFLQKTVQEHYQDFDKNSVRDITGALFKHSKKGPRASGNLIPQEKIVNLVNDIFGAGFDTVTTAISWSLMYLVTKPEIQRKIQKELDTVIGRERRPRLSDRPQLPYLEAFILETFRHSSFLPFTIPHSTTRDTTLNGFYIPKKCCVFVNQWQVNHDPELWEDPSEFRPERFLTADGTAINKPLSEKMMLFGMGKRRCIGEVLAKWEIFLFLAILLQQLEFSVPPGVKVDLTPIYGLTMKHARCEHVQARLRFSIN
Excerpt: human liver microsomes, cocktail probe assay, UPLC-MS/MS on CYP1A2

CYP2B6 [4] = target: T3, CYP2B6; assay: as above; assay type: biochemical; details: read-out: IC50 (μM) / HLM
Excerpt: human liver microsomes, cocktail probe assay, UPLC-MS/MS on CYP2B6

T1 sequence (P08684 2-503): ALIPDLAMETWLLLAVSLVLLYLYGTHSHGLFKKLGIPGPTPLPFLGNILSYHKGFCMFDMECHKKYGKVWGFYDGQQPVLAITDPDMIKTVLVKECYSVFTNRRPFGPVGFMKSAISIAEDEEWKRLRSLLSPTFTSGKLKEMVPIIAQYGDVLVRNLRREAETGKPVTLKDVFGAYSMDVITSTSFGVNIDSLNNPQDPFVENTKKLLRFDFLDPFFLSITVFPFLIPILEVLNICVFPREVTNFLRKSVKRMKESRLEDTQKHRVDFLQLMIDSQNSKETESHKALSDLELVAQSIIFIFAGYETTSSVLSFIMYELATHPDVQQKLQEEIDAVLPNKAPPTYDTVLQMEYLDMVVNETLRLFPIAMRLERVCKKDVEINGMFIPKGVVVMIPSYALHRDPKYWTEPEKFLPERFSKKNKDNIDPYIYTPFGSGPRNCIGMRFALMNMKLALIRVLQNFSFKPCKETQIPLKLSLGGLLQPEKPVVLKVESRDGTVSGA
T4 sequence (P33261 whole entry): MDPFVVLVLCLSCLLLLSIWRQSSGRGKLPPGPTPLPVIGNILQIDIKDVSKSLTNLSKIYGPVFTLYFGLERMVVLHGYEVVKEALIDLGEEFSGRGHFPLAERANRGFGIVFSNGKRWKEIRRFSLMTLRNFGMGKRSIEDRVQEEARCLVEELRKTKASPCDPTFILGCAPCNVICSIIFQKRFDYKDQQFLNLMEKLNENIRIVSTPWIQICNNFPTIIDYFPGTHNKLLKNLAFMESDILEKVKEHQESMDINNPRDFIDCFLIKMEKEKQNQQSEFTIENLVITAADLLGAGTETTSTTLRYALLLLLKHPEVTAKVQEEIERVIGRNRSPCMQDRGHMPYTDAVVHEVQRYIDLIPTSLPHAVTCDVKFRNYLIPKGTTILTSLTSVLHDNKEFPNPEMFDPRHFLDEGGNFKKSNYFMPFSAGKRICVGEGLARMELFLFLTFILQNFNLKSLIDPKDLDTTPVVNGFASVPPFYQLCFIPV
T2 sequence (P11712 whole entry): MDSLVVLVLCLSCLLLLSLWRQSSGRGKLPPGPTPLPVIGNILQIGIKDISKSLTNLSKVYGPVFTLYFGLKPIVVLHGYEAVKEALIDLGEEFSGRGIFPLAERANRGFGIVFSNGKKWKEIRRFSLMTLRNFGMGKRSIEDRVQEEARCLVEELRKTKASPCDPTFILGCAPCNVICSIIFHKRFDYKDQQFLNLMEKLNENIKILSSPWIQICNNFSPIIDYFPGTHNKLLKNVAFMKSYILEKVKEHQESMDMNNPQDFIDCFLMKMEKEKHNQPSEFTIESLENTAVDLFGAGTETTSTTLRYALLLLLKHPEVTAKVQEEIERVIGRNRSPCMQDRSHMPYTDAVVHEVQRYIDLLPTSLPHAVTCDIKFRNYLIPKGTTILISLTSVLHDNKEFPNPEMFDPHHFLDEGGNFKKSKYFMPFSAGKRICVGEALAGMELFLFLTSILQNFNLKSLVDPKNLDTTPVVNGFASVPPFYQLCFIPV

## Cc1ncc2n1-c1ccc(Cl)cc1C(c1ccccc1F)=NC2 [midazolam]
CYP3A4 [1]
  Km: 13.9 µM

## O=C(O)Cc1ccccc1Nc1c(Cl)cccc1Cl [diclofenac]
CYP2C9
  Km: 41.9 µM

## CC(NC(C)(C)C)C(=O)c1cccc(Cl)c1 (stereo not shown) [bupropion]
CYP2B6 [2]
  Km: 151 µM

## COc1cc(/C=C/C(=O)CC(=O)/C=C/c2ccc(O)c(OC)c2)ccc1O [curcumin]
CYP2C19
  IC50: > 500 µM
CYP3A4 [3]
  IC50: 21 ± 1.27 µM
CYP1A2
  IC50: 50.1 ± 2.71 µM
CYP2B6 [4]
  IC50: 30 ± 2.09 µM
